Data published in patent publication US6605297B2, “Substances having antiobese and visceral fat-reducing functions and utilization thereof” (Janiftec, Inc., priority 1998, dated 2003).

Assays:
[1] = 7-week feeding study in rats: body weight, feed ingested, symptoms; assay type: in vivo, Sprague-Dawley male rats; settings: Example 3; 0.5% in feed plus 8.5% lard, rats 7 weeks
Protocol: (§1) After acclimation for 1 week on basic feed (F-2, Funabashi Farms Co., Ltd.) using 7-week-old Sprague-Dawley male rats, 7 rats per group were placed in the following 3 groups so that average body weight of each group would be the same and reared for 7 weeks. Rearing environment was adjusted to a temperature of 22 to 24° C. and humidity of 50 to 60%, with 12 hours of light and dark each (light time: 8:00 to 20:00, dark time: 20:00 to 8:00). Feed was supplied in restricted amounts and body weight was determined each week.
(§2) The components, including proteins, sugars, etc., were the same and the lipids were adjusted to 10% for each group. […]
(§3) After being reared for 7 weeks, the laboratory animals were fasted for 20 hours. […] Then mesenteric fat, perinephric fat, peritesticular fat, and interscapular brown fat were recovered and weighed and the brown fat was submitted to determinations of the amount of UCP. The plasma was obtained from blood by conventional methods and serum triglycerides, cholesterol, and phospholipid concentrations were determined. The amount of UCP was determined by the following method.
With the exception that 8.5% lard was added to 0.5% starting DHA ethyl ester and served as the control group, and 8.5% lard was added to 0.5% coupled DHA ethyl ester and served as the coupled DHA ethyl group, the feed was in accordance with Example 1. […]

[2] = test system: mesenteric fat, perinephric fat, peritesticular fat, interscapular brown fat; experiment: 7-week feeding study in rats: weight of mesenteric, perinephric, peritesticular and interscapular brown fat; assay type: in vivo, Sprague-Dawley male rats; settings: Example 3; 0.5% in feed plus 8.5% lard, rats 7 weeks
Protocol: as §1, §2, §3
Then the mesenteric fat, perinephric fat, peritesticular fat, and interscapular brown fat were collected and weight was determined, and the brown fat was submitted to determinations of the amount of UCP.

[3] = test system: UCP; experiment: Amount of UCP in interscapular BAT mitochondria fraction by western blotting; assay type: in vivo, rat; settings: Example 3; 0.5% in feed, rats 7 weeks; relative value, control group = 100
Protocol: as §3
Interscapular BAT extracted from rats was homogenized with 200 mM sucrose (comprising 10 mM Tris-HCl at pH of 7.5; 2 mM EDTA), centrifuged for 5 minutes at 3,100 rpm and 4° C. using a centrifugator on a cold table, and the supernatent thereof was further centrifuged for 10 minutes at 12,000 rpm and 4° C. The precipitate thus obtained (mitochondria fraction) was served as the sample.
Polyacrylamide gel electrophoresis was performed with 11% separated gel, and 50 μg sample protein were submitted to analysis from each lane. As the electrophoresis conditions, migration for 10 minutes at 100 V and then for 1 hour at 200 V were adopted. […] After rinsing, the UCP band was detected on X-ray film with a chemiluminescence method detection reagent (Dupont). The darkness of the band on the film was read with a scanner and digitized by a computer. […]

## CC/C=C\C/C=C\C/C=C\C/C=C\C/C=C\C/C=C\CCC(=O)OCC [Control group, DHA ethyl ester]
[1]
  Body weight: 515.8 ± 29 b g
[2]
  Brown fat per body weight: 0.073 ± 0.015%
  Mesenteric fat per body weight: 1.01 ± 0.20 b %
  Total intra-abdominal fat per body weight: 5.29 ± 0.93 b %
[3]
  UCP: 100 ± 8
